Measured values from patent US12180187B2, “1-phenyl-5-azinylpyrazolyl-3-oxyalkyl acids and their use for controlling unwanted plant growth” (BAYER AKTIENGESELLSCHAFT, priority 2019, dated 2024).

Columns and labels:
[1] = system: POLCO; assay: Pre-emergence action at 320 g/ha against POLCO; assay type: in vivo, Fallopia convolvulus (Polygonum convolvulus); conditions: visual scoring after about 3 weeks vs untreated controls
In short: (§1)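 Weed seeds sown in pots and covered with soil; compounds formulated as WP or EC were sprayed onto the soil surface as aqueous suspension or emulsion with 0.5% additive at 600 l/ha water. Pots kept in greenhouse; activity scored visually after about 3 weeks versus untreated controls (100% = plants dead, 0% = like control).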

[2] = system: ABUTH; assay: Post-emergence action at 320 g/ha against ABUTH; assay type: in vivo, Abutilon theophrasti; conditions: visual rating about 3 weeks after treatment vs untreated controls
Text: (§2) Accordingly, the compounds of the invention have good herbicidal action against a broad spectrum of weed grasses and broad-leaved weeds and are therefore suitable for controlling unwanted vegetation by the post-emergence method. • b) Seeds of monocotyledonous and dicotyledonous weeds and crop plants are placed in sandy loam in plastic or organic planting pots, covered with soil and cultivated in a greenhouse under controlled growth conditions. 2 to 3 weeks after sowing, the test plants are treated at the one-leaf stage. The compounds of the invention, formulated in the form of wettable powders (WP) or as emulsion concentrates (EC), are then sprayed onto the green parts of the plants as aqueous suspension or emulsion with addition of 0.5% additive at a water application rate of 600 l/ha (converted). After the test plants have been kept in the greenhouse under optimum growth conditions for about 3 weeks, the activity of the preparations is rated visually in comparison to untreated controls. For example, 100% activity=the plants have died, 0% activity=like control plants. Tables 39 to 49 below show the effects of selected compounds of the general formula (I) according to Tables 1 and 2 on various harmful plants and at an application rate corresponding to 320 g/ha, which were obtained by the experimental procedure mentioned above.

[3] = system: VERPE; assay: Pre-emergence action at 320 g/ha against VERPE; assay type: in vivo, Veronica persica; conditions: visual scoring after about 3 weeks vs untreated controls
In short: as §1

[4] = system: AVEFA; assay: Pre-emergence action at 320 g/ha against AVEFA; assay type: in vivo; conditions: visual scoring after about 3 weeks vs untreated controls
In short: as §1

[5] = system: DIGSA; assay: Pre-emergence action at 320 g/ha against DIGSA; assay type: in vivo, Digitaria sanguinalis; conditions: visual scoring after about 3 weeks vs untreated controls
In short: as §1

[6] = system: SETVI; assay: Post-emergence action at 320 g/ha against SETVI; assay type: in vivo, Setaria viridis; conditions: visual rating about 3 weeks after treatment vs untreated controls
Text: as §2

[7] = system: POAAN; assay: Post-emergence action against POAAN, 1.28 kg/ha; assay type: in vivo, Poa annua; conditions: dosage 1280 g/ha, visual rating about 3 weeks after treatment vs untreated controls
In short: (§3)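 Greenhouse pot test, sandy loam; weeds sprayed post-emergence at one-leaf stage (2–3 weeks after sowing) with WP or EC formulation plus 0.5% additive, 600 l/ha water. Visual rating after about 3 weeks versus untreated controls, 100% = plants dead, 0% = like control.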

[8] = system: SETVI; assay: Pre-emergence action against SETVI, 1280 g/ha; assay type: in vivo, Setaria viridis; conditions: visual scoring after about 3 weeks vs untreated controls, 100% = plants have died, 0% = like control plants
In short: (§4)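 Percent herbicidal effect, judged by eye relative to untreated pots around 3 weeks after soil-surface treatment. Application: formulated compound in water, 600 L/ha, 0.5% additive, on soil over sown seeds; greenhouse.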

[9] = system: LOLRI; assay: Pre-emergence action against LOLRI, 1280 g/ha; assay type: in vivo, Lolium rigidum; conditions: visual scoring after about 3 weeks vs untreated controls, 100% = plants have died, 0% = like control plants
In short: as §4

[10] = system: ALOMY; assay: Pre-emergence action against ALOMY, 1280 g/ha; assay type: in vivo, Alopecurus myosuroides; conditions: visual scoring after about 3 weeks vs untreated controls, 100% = plants have died, 0% = like control plants
In short: as §4

[11] = system: STEME; assay: Post-emergence action against STEME, 1.28 kg/ha; assay type: in vivo, Stellaria media; conditions: dosage 1280 g/ha, visual rating about 3 weeks after treatment vs untreated controls (100% = plants died)
In short: as §3

[12] = system: MATIN; assay: Post-emergence action against MATIN, 1.28 kg/ha; assay type: in vivo, Tripleurospermum inodorum (Matricaria inodora); conditions: dosage 1280 g/ha, visual rating about 3 weeks after treatment vs untreated controls (100% = plants died)
In short: as §3

[13] = system: ECHCG; assay: Post-emergence action against ECHCG, 1.28 kg/ha; assay type: in vivo, Echinochloa crus-galli; conditions: dosage 1280 g/ha, visual rating about 3 weeks after treatment vs untreated controls
In short: as §3

[14] = system: STEME; assay: Pre-emergence action against STEME, 1280 g/ha; assay type: in vivo, Stellaria media; conditions: scored visually after about 3 weeks vs untreated controls (100% = plants have died)
In short: as §4

[15] = system: MATIN; assay: Pre-emergence action at 320 g/ha against MATIN; assay type: in vivo, Tripleurospermum inodorum (Matricaria inodora); conditions: visual scoring after about 3 weeks vs untreated controls
In short: as §1

[16] = system: ALOMY; assay: Post-emergence action against ALOMY, 320 g/ha; assay type: in vivo, Alopecurus myosuroides; conditions: dosage 320 g/ha, visual rating about 3 weeks after treatment vs untreated controls (100% = plants died)
In short: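 Herbicidal effect is scored by eye about 3 weeks after a foliar spray and expressed as percent activity, with untreated plants as 0% and dead plants as 100%. Treatment is applied at the one-leaf stage of greenhouse-grown, soil-sown plants, at a water rate of 600 l/ha containing 0.5% additive.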

[17] = system: VIOTR; assay: Pre-emergence action at 320 g/ha against VIOTR; assay type: in vivo, Viola tricolor; conditions: dosage 320 g/ha
In short: as §1

[18] = system: AMARE; assay: Post-emergence action against AMARE, 1.28 kg/ha; assay type: in vivo, Amaranthus retroflexus; conditions: dosage 1280 g/ha, visual rating about 3 weeks after treatment vs untreated controls (100% = plants died)
In short: as §3

[19] = system: DIGSA; assay: Pre-emergence action against DIGSA, 1280 g/ha; assay type: in vivo, Digitaria sanguinalis; conditions: visual scoring after about 3 weeks vs untreated controls, 100% = plants have died, 0% = like control plants
In short: as §4

[20] = system: DIGSA; assay: Post-emergence action against DIGSA, 1.28 kg/ha; assay type: in vivo, Digitaria sanguinalis; conditions: dosage 1280 g/ha, visual rating about 3 weeks after treatment vs untreated controls
In short: as §3

[21] = system: AMARE; assay: Pre-emergence action at 320 g/ha against AMARE; assay type: in vivo, Amaranthus retroflexus; conditions: visual scoring after about 3 weeks vs untreated controls
In short: as §1

[22] = system: VERPE; assay: Post-emergence action against VERPE, 1.28 kg/ha; assay type: in vivo, Veronica persica; conditions: dosage 1280 g/ha, visual rating about 3 weeks after treatment vs untreated controls (100% = plants died)
In short: as §3

[23] = system: DIGSA; assay: Post-emergence action at 320 g/ha against DIGSA; assay type: in vivo, Digitaria sanguinalis; conditions: dosage 320 g/ha, visual rating about 3 weeks after treatment vs untreated controls (100% = plants died)
Text: as §2

[24] = system: ABUTH; assay: Pre-emergence action against ABUTH, 1280 g/ha; assay type: in vivo, Abutilon theophrasti; conditions: scored visually after about 3 weeks vs untreated controls (100% = plants have died)
In short: as §4

[25] = system: AVEFA; assay: Post-emergence action at 320 g/ha against AVEFA; assay type: in vivo; conditions: visual rating about 3 weeks after treatment vs untreated controls
Text: as §2

[26] = system: AMARE; assay: Pre-emergence action against AMARE, 1280 g/ha; assay type: in vivo, Amaranthus retroflexus; conditions: scored visually after about 3 weeks vs untreated controls (100% = plants have died)
In short: as §4

[27] = system: POAAN; assay: Pre-emergence action against POAAN, 1280 g/ha; assay type: in vivo, Poa annua; conditions: visual scoring after about 3 weeks vs untreated controls, 100% = plants have died, 0% = like control plants
In short: as §4

[28] = system: MATIN; assay: Pre-emergence action against MATIN, 1280 g/ha; assay type: in vivo, Tripleurospermum inodorum (Matricaria inodora); conditions: scored visually after about 3 weeks vs untreated controls (100% = plants have died)
In short: as §4

[29] = system: SETVI; assay: Post-emergence action against SETVI, 1.28 kg/ha; assay type: in vivo, Setaria viridis; conditions: dosage 1280 g/ha, visual rating about 3 weeks after treatment vs untreated controls
In short: as §3

[30] = system: POLCO; assay: Post-emergence action at 320 g/ha against POLCO; assay type: in vivo, Fallopia convolvulus (Polygonum convolvulus); conditions: visual rating about 3 weeks after treatment vs untreated controls
Text: as §2

[31] = system: VERPE; assay: Pre-emergence action against VERPE, 1280 g/ha; assay type: in vivo, Veronica persica; conditions: scored visually after about 3 weeks vs untreated controls (100% = plants have died)
In short: as §4

[32] = system: ECHCG; assay: Pre-emergence action against ECHCG, 1280 g/ha; assay type: in vivo, Echinochloa crus-galli; conditions: visual scoring after about 3 weeks vs untreated controls, 100% = plants have died, 0% = like control plants
In short: as §4

CCOC(=O)COc1nn(-c2ccccc2F)c(-c2cncnc2)c1Br [VI-001]
Pre-emergence action against POLCO in % [1]: 100%
Post-emergence action against ABUTH in % [2]: 80%
Pre-emergence action against VERPE in % [3]: 100%
Pre-emergence action against AVEFA in % [4]: 90%
Pre-emergence action against DIGSA in % [5]: 100%
Post-emergence action against SETVI in % [6]: 80%
Post-emergence action against POAAN [7]: 100%
Pre-emergence action against SETVI [8]: 100%
Pre-emergence action against LOLRI [9]: 100%
Pre-emergence action against ALOMY [10]: 90%
Post-emergence action against STEME [11]: 100%
Post-emergence action against MATIN [12]: 90%
Post-emergence action against ECHCG [13]: 100%
Pre-emergence action against STEME [14]: 100%
Pre-emergence action against MATIN in % [15]: 90%
Post-emergence action against ALOMY [16]: 90%
Pre-emergence action against VIOTR in % [17]: 100%
Post-emergence action against AMARE [18]: 90%
Pre-emergence action against DIGSA [19]: 90%
Post-emergence action against DIGSA [20]: 100%
Pre-emergence action against AMARE in % [21]: 100%
Post-emergence action against VERPE [22]: 100%
Post-emergence action at 320 g/ha against DIGSA in % [23]: 90%
Pre-emergence action against ABUTH [24]: 90%
Post-emergence action against AVEFA in % [25]: 80%
Pre-emergence action against AMARE [26]: 100%
Pre-emergence action against POAAN [27]: 100%
Pre-emergence action against MATIN [28]: 100%
Post-emergence action against SETVI [29]: 100%
Post-emergence action against POLCO in % [30]: 90%
Pre-emergence action against VERPE [31]: 100%
Pre-emergence action against ECHCG [32]: 100%
